Assays:
[1] = target: rat A2A AR (Rattus norvegicus, UniProt P30543); assay: Radioligand binding to rA2A AR
[2] = target: rA2A receptor; details: read-out: Ki at rA2A receptor; cited from earlier work

Chain of rat A2A AR (P30543 whole entry): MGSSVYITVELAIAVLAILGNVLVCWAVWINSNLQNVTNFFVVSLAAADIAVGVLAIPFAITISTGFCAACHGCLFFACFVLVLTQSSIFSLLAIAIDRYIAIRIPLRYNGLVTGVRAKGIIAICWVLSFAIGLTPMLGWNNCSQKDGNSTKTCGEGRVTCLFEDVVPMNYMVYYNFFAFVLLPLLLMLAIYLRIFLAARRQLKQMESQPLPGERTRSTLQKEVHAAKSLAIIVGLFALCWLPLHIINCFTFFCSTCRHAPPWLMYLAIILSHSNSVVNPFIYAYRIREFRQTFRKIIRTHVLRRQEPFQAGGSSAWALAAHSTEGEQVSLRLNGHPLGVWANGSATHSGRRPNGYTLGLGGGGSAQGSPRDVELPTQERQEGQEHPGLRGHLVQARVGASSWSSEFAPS

Ki [1]	Structure (SMILES)	Ki [2]
180 to 400 nM	CCCCCC(=O)Nc1nc(SC)nc2nc(-c3ccco3)nn12 [Compound 11, 2-(2-Furyl)-5-methylthio-7-n-pentylcarbonylamino-[1,2,4]-triazolo[1,5-a]-[1,3,5]triazine]	
	Nc1nc(NCCc2ccc(O)cc2)nc2nc(-c3ccco3)nn12 [ZM241385, 4-(2-[7-amino-2-{2-furyl}{1,2,4}triazolo{2,3-a}{1,3,5,}triazin-5-ylamino]ethyl)phenol]	0.21 to 0.5 nM
